System: NOMO1
Assay: cell viability relative to DMSO control; higher = less cytotoxic
Settings: 48 h
Outline: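 Viability values are per-plate percentages of DMSO wells, with background from cell-free wells. Library compounds in DMSO were pin-dosed, in an 11-point threefold series from 47 μM to 0.79 nM, onto NOMO1 or SEM (500 cells/well) or P12-Ichikawa (1000 cells/well) leukemia cells in 1536-well plates (5 μl). Those cells had been adapted for at least four passages in each medium, and CellTiter-Glo One luminescence was read after 48 h at 37°C.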

[1] = HPLM + 10% dialyzed FBS, 0.000781 µM
[2] = HPLM + 10% dialyzed FBS, 0.00234 µM
[3] = HPLM + 10% dialyzed FBS, 0.00702 µM
[4] = HPLM + 10% dialyzed FBS, 0.0211 µM
[5] = HPLM + 10% dialyzed FBS, 0.0632 µM
[6] = HPLM + 10% dialyzed FBS, 0.19 µM
[7] = HPLM + 10% dialyzed FBS, 0.569 µM
[8] = HPLM + 10% dialyzed FBS, 1.71 µM
[9] = HPLM + 10% dialyzed FBS, 5.12 µM
[10] = HPLM + 10% dialyzed FBS, 15.4 µM
[11] = HPLM + 10% dialyzed FBS, 46.1 µM
[12] = RPMI 5 mM glucose + 10% FBS, 0.000781 µM
[13] = RPMI 5 mM glucose + 10% FBS, 0.00234 µM
[14] = RPMI 5 mM glucose + 10% FBS, 0.00702 µM
[15] = RPMI 5 mM glucose + 10% FBS, 0.0211 µM
[16] = RPMI 5 mM glucose + 10% FBS, 0.0632 µM
[17] = RPMI 5 mM glucose + 10% FBS, 0.19 µM
[18] = RPMI 5 mM glucose + 10% FBS, 0.569 µM
[19] = RPMI 5 mM glucose + 10% FBS, 1.71 µM
[20] = RPMI 5 mM glucose + 10% FBS, 5.12 µM
[21] = RPMI 5 mM glucose + 10% FBS, 15.4 µM
[22] = RPMI 5 mM glucose + 10% FBS, 46.1 µM
[23] = RPMI 5 mM glucose + 10% dialyzed FBS, 0.000781 µM
[24] = RPMI 5 mM glucose + 10% dialyzed FBS, 0.00234 µM
[25] = RPMI 5 mM glucose + 10% dialyzed FBS, 0.00702 µM
[26] = RPMI 5 mM glucose + 10% dialyzed FBS, 0.0211 µM
[27] = RPMI 5 mM glucose + 10% dialyzed FBS, 0.0632 µM
[28] = RPMI 5 mM glucose + 10% dialyzed FBS, 0.19 µM
[29] = RPMI 5 mM glucose + 10% dialyzed FBS, 0.569 µM
[30] = RPMI 5 mM glucose + 10% dialyzed FBS, 1.71 µM
[31] = RPMI 5 mM glucose + 10% dialyzed FBS, 5.12 µM
[32] = RPMI 5 mM glucose + 10% dialyzed FBS, 15.4 µM
[33] = RPMI 5 mM glucose + 10% dialyzed FBS, 46.1 µM

## C[S+](=O)([O-])c1ccc(-c2cnc(N)c(C(=O)Nc3ccccc3)n2)cc1
[1]
  cell viability: 113%
[2]
  cell viability: 119%
[3]
  cell viability: 128%
[4]
  cell viability: 126%
[5]
  cell viability: 118%
[6]
  cell viability: 145%
[7]
  cell viability: 123%
[8]
  cell viability: 103%
[9]
  cell viability: 115%
[10]
  cell viability: 52.1%
[11]
  cell viability: 56.1%
[12]
  cell viability: 110%
[13]
  cell viability: 110%
[14]
  cell viability: 112%
[15]
  cell viability: 110%
[16]
  cell viability: 111%
[17]
  cell viability: 133%
[18]
  cell viability: 113%
[19]
  cell viability: 116%
[20]
  cell viability: 110%
[21]
  cell viability: 87%
[22]
  cell viability: 98.4%
[23]
  cell viability: 95.6%
[24]
  cell viability: 93.1%
[25]
  cell viability: 99.7%
[26]
  cell viability: 104%
[27]
  cell viability: 106%
[28]
  cell viability: 113%
[29]
  cell viability: 117%
[30]
  cell viability: 112%
[31]
  cell viability: 110%
[32]
  cell viability: 75%
[33]
  cell viability: 69.3%

## NC(=O)c1cccc2cn(-c3ccc([C@@H]4CCCNC4)cc3)nc12
[1]
  cell viability: 90.2%
[2]
  cell viability: 97.4%
[3]
  cell viability: 114%
[4]
  cell viability: 103%
[5]
  cell viability: 118%
[6]
  cell viability: 122%
[7]
  cell viability: 114%
[8]
  cell viability: 111%
[9]
  cell viability: 98.2%
[10]
  cell viability: 117%
[11]
  cell viability: 69%
[12]
  cell viability: 83.5%
[13]
  cell viability: 82.2%
[14]
  cell viability: 100%
[15]
  cell viability: 102%
[16]
  cell viability: 93.8%
[17]
  cell viability: 97.1%
[18]
  cell viability: 91.5%
[19]
  cell viability: 106%
[20]
  cell viability: 103%
[21]
  cell viability: 105%
[22]
  cell viability: 82.2%
[23]
  cell viability: 83.8%
[24]
  cell viability: 111%
[25]
  cell viability: 108%
[26]
  cell viability: 111%
[27]
  cell viability: 108%
[28]
  cell viability: 122%
[29]
  cell viability: 114%
[30]
  cell viability: 102%
[31]
  cell viability: 110%
[32]
  cell viability: 118%
[33]
  cell viability: 98.8%

## CCCCCCCCCC(=O)N[C@@H](Cc1c[nH]c2ccccc12)C(=O)N[C@H](CC(N)=O)C(=O)N[C@@H](CC(=O)O)C(=O)N[C@@H]1C(=O)NCC(=O)N[C@@H](CCCN)C(=O)N[C@@H](CC(=O)O)C(=O)N[C@H](C)C(=O)N[C@@H](CC(=O)O)C(=O)NCC(=O)N[C@H](CO)C(=O)N[C@@H]([C@@H](C)CC(=O)O)C(=O)N[C@@H](CC(=O)c2ccccc2N)C(=O)O[C@@H]1C
[1]
  cell viability: 105%
[2]
  cell viability: 118%
[3]
  cell viability: 118%
[4]
  cell viability: 132%
[5]
  cell viability: 108%
[6]
  cell viability: 123%
[7]
  cell viability: 119%
[8]
  cell viability: 133%
[9]
  cell viability: 149%
[10]
  cell viability: 106%
[11]
  cell viability: 114%
[12]
  cell viability: 98.9%
[13]
  cell viability: 112%
[14]
  cell viability: 102%
[15]
  cell viability: 122%
[16]
  cell viability: 111%
[17]
  cell viability: 104%
[18]
  cell viability: 121%
[19]
  cell viability: 124%
[20]
  cell viability: 108%
[21]
  cell viability: 117%
[22]
  cell viability: 111%
[23]
  cell viability: 103%
[24]
  cell viability: 116%
[25]
  cell viability: 103%
[26]
  cell viability: 111%
[27]
  cell viability: 125%
[28]
  cell viability: 106%
[29]
  cell viability: 141%
[30]
  cell viability: 131%
[31]
  cell viability: 102%
[32]
  cell viability: 118%
[33]
  cell viability: 80.3%

From the supplement of paper PMC11451515
